Experiments:
[1] = target: Adenosine A2A receptor (Tag-lite Adenosine A2A labeled cells) (Homo sapiens (Human), UniProt P29274); experiment: A2A Tag-lite HTRF Assay; type: binding; conditions: displacement of Adenosine A2A Receptor Red antagonist fluorescent ligand, 12.5 nM
Text: The final concentration of DMSO was 1%.

[2] = target: human adenosine A2B receptor (Homo sapiens (Human), UniProt P29275); experiment: Adenosine A2B Receptor Cyclic AMP GS Assay; type: cell-based; conditions: HEK-293 cells, agonist NECA at 12 nM, cAMP accumulation; read-out: A2B—cAMP_EC50
Experimental: Stably transfected HEK-293 cells expressing the human adenosine A2B receptor (Perkin Elmer) were maintained in MEM culture medium with 10% FBS and 100 μg/mL Geneticin (Life Technologies). 18 to 24 hours prior to assay, geneticin was removed from culture. The cisbio cAMP-GS Dynamic kit utilizing the FRET (Fluorescence Resonance Energy Transfer) technology was used to measure cAMP accumulation in the cells. Compounds of the present disclosure at an appropriate concentration were mixed with 10000 cells/well in white 96 well half area plates (Perkin Elmer) for 30 min at room temperature gently shaking. Agonist, NECA (R&D Technologies) at 12 nM was added to each well for 60 min at room temperature gently shaking. Detection reagents, d2-labeled cAMP (acceptor) and anti-cAMP cryptate (donor) were added to each well for 60 min at RT gently shaking. Plates were read on Pherastar (BMG Labtech), fluorescence ratio 665/620 was calculated and EC50 determination was performed by fitting the curve of percent of control versus the log of the compound concentration using GraphPad Prism.

Chain of human adenosine A2B receptor (P29275 whole entry): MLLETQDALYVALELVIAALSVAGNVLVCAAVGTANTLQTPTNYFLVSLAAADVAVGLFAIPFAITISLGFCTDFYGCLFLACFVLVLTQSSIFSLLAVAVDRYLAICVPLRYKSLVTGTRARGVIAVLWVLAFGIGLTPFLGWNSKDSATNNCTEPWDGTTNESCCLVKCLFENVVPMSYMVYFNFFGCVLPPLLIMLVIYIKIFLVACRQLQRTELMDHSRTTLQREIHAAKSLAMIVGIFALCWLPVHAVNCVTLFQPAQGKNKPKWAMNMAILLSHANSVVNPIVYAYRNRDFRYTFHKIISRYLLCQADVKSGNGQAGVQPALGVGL
Chain of Adenosine A2A receptor (Tag-lite Adenosine A2A labeled cells) (P29274 whole entry): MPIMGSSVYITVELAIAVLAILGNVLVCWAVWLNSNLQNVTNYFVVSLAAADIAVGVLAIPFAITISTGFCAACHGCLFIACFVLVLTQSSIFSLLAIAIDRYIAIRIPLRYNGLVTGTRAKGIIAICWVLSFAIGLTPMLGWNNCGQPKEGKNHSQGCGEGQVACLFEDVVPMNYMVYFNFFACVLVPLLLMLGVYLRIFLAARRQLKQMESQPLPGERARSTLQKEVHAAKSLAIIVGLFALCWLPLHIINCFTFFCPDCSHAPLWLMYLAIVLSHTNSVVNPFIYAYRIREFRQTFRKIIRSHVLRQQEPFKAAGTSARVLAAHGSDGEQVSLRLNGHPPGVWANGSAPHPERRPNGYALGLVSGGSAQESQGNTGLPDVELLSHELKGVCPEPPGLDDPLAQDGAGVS

Compound	Ki [1] [nM]	EC50 [2] [nM]
Cn1ccc(Cn2nc3c(N)nc(-c4cccc(C#N)c4)c(-c4ccncn4)c3n2)n1 [Example 44, 3-(4-amino-2-((1-methyl-1H-pyrazol-3-yl)methyl)-7-(pyrimidin-4-yl)-2H-[1,2,3]triazolo[4,5-c]pyridin-6-yl)benzonitrile]	≤ 10	≤ 10
N#Cc1cccc(-c2nc(N)c3nn(Cc4ccccn4)nc3c2-c2ccc3nccnc3c2)c1F [Example 43, 3-(4-amino-2-(pyridin-2-ylmethyl)-7-(quinoxalin-6-yl)-2H-[1,2,3]triazolo[4,5-c]pyridin-6-yl)-2-fluorobenzonitrile]	≤ 10	100 to 1000
Cc1nc(CO)c(-c2c(-c3cccc(C#N)c3F)nc(N)c3nn(Cc4ccccn4)nc23)o1 [Example 42, 3-(4-amino-7-(4-(hydroxymethyl)-2-methyloxazol-5-yl)-2-(pyridin-2-ylmethyl)-2H-[1,2,3]triazolo[4,5-c]pyridin-6-yl)-2-fluorobenzonitrile]	≤ 10	10 to 100
Cc1ncoc1-c1c(-c2cccc(C#N)c2F)nc(N)c2nn(CCc3ccccn3)nc12 [Example 49, 3-(4-amino-7-(4-methyloxazol-5-yl)-2-(2-(pyridin-2-yl)ethyl)-2H-[1,2,3]triazolo[4,5-c]pyridin-6-yl)-2-fluorobenzonitrile]	≤ 10	10 to 100
Cn1cc(-c2c(-c3cccc(C#N)c3)nc(N)c3nn(Cc4ncccc4F)nc23)ccc1=O [Example 32, 3-(4-amino-2-((3-fluoropyridin-2-yl)methyl)-7-(1-methyl-6-oxo-1,6-dihydropyridin-3-yl)-2H-[1,2,3]triazolo[4,5-c]pyridin-6-yl)benzonitrile]	≤ 10	10 to 100
N#Cc1cccc(-c2nc(N)c3nn(Cc4ncccc4F)nc3c2-c2ccncc2)c1 [Example 31, 3-(4-amino-2-((3-fluoropyridin-2-yl)methyl)-7-(pyridin-4-yl)-2H-[1,2,3]triazolo[4,5-c]pyridin-6-yl)benzonitrile]	≤ 10	≤ 10
N#Cc1cccc(-c2nc(N)c3nn(Cc4ccccn4)cc3c2-c2ccncn2)c1 [Example 8, 3-(7-amino-2-(pyridin-2-ylmethyl)-4-(pyrimidin-4-yl)-2H-pyrazolo[3,4-c]pyridin-5-yl)benzonitrile]	≤ 10	≤ 10
Cn1ccc(Cn2cc3c(N)nc(-c4cccc(C#N)c4)c(-c4ccncn4)c3n2)n1 [Example 4, 3-(4-amino-2-((1-methyl-1H-pyrazol-3-yl)methyl)-7-(pyrimidin-4-yl)-2H-pyrazolo[4,3-c]pyridin-6-yl)benzonitrile]	≤ 10	10 to 100
Cc1ncoc1-c1c(-c2cccc(C#N)c2)nc(N)c2nn(CCc3ccccn3)nc12 [Example 48, 3-(4-amino-7-(4-methyloxazol-5-yl)-2-(2-(pyridin-2-yl)ethyl)-2H-[1,2,3]triazolo[4,5-c]pyridin-6-yl)benzonitrile]	≤ 10	10 to 100
Cc1cccc(Cn2nc3c(N)nc(-c4cccc(C#N)c4)c(-c4ccncc4C)c3n2)n1 [Example 26, 3-(4-amino-2-((6-methylpyridin-2-yl)methyl)-7-(3-methylpyridin-4-yl)-2H-[1,2,3]triazolo[4,5-c]pyridin-6-yl)benzonitrile]	≤ 10	≤ 10
Cn1nccc1-c1c(-c2cccc(C#N)c2)nc(N)c2nn(Cc3ncccc3F)nc12 [Example 35, 3-(4-amino-2-((3-fluoropyridin-2-yl)methyl)-7-(1-methyl-1H-pyrazol-5-yl)-2H-[1,2,3]triazolo[4,5-c]pyridin-6-yl)benzonitrile]	≤ 10	≤ 10
CC(c1ccccn1)n1nc2c(N)nc(-c3cccc(C#N)c3)c(-c3ccncn3)c2n1 (stereo not shown) [Example 47, 3-(4-amino-2-(1-(pyridin-2-yl)ethyl)-7-(pyrimidin-4-yl)-2H-[1,2,3]triazolo[4,5-c]pyridin-6-yl)benzonitrile]	≤ 10	100 to 1000
CCn1nccc1-c1c(-c2cccc(C#N)c2)nc(N)c2cn(Cc3ccccn3)nc12 [Example 2, 3-(4-amino-7-(1-ethyl-1H-pyrazol-5-yl)-2-(pyridin-2-ylmethyl)-2H-pyrazolo[4,3-c]pyridin-6-yl)benzonitrile]	≤ 10	≤ 10
CCn1nccc1-c1c(-c2cccc(C#N)c2)nc(N)c2nn(Cc3ncccc3F)nc12 [Example 33, 3-(4-amino-7-(1-ethyl-1H-pyrazol-5-yl)-2-((3-fluoropyridin-2-yl)methyl)-2H-[1,2,3]triazolo[4,5-c]pyridin-6-yl)benzonitrile]	≤ 10	≤ 10
Cc1cccc(Cn2nc3c(N)nc(-c4cccc(C#N)c4)c(-c4ccc(=O)n(C)c4)c3n2)n1 [Example 27, 3-(4-amino-7-(1-methyl-6-oxo-1,6-dihydropyridin-3-yl)-2-((6-methylpyridin-2-yl)methyl)-2H-[1,2,3]triazolo[4,5-c]pyridin-6-yl)benzonitrile]	≤ 10	10 to 100
N#Cc1cccc(-c2nc(N)c3nn(Cc4ccccn4)nc3c2-c2ccc3ncccc3c2)c1 [Example 22, 3-(4-amino-2-(pyridin-2-ylmethyl)-7-(quinolin-6-yl)-2H-[1,2,3]triazolo[4,5-c]pyridin-6-yl)benzonitrile]	≤ 10	≤ 10
N#Cc1cccc(-c2nc(N)c3cn(Cc4ccccn4)nc3c2-c2ccncc2)c1 [Example 6, 3-(4-amino-2-(pyridin-2-ylmethyl)-7-(pyridin-4-yl)-2H-pyrazolo[4,3-c]pyridin-6-yl)benzonitrile]	≤ 10	≤ 10
N#Cc1cccc(-c2nc(N)c3nn(Cc4ccccn4)nc3c2-c2cnco2)c1 [Example 21, 3-(4-amino-7-(oxazol-5-yl)-2-(pyridin-2-ylmethyl)-2H-[1,2,3]triazolo[4,5-c]pyridin-6-yl)benzonitrile]	≤ 10	≤ 10
CCn1nccc1-c1c(-c2cccc(C#N)c2F)nc(N)c2nn(Cc3ccccn3)nc12 [Example 38, 3-(4-amino-7-(1-ethyl-1H-pyrazol-5-yl)-2-(pyridin-2-ylmethyl)-2H-[1,2,3]triazolo[4,5-c]pyridin-6-yl)-2-fluorobenzonitrile]	≤ 10	≤ 10
Cc1ncoc1-c1c(-c2cccc(C#N)c2)nc(N)c2nn(Cc3ccccn3)cc12 [Example 12, 3-(7-amino-4-(4-methyloxazol-5-yl)-2-(pyridin-2-ylmethyl)-2H-pyrazolo[3,4-c]pyridin-5-yl)benzonitrile]	≤ 10	10 to 100
CCn1nccc1-c1c(-c2cccc(C#N)c2)nc(N)c2nn(Cc3ccccn3)nc12 [Example 18, 3-(4-amino-7-(1-ethyl-1H-pyrazol-5-yl)-2-(pyridin-2-ylmethyl)-2H-[1,2,3]triazolo[4,5-c]pyridin-6-yl)benzonitrile]	≤ 10	≤ 10
Cc1ncoc1-c1c(-c2cccc(C#N)c2F)nc(N)c2nn(Cc3ccccn3)nc12 [Example 41, 3-(4-amino-7-(4-methyloxazol-5-yl)-2-(pyridin-2-ylmethyl)-2H-[1,2,3]triazolo[4,5-c]pyridin-6-yl)-2-fluorobenzonitrile]	≤ 10	≤ 10
Cc1cnccc1-c1c(-c2cccc(C#N)c2)nc(N)c2nn(Cc3ccccn3)nc12 [Example 19, 3-(4-amino-7-(3-methylpyridin-4-yl)-2-(pyridin-2-ylmethyl)-2H-[1,2,3]triazolo[4,5-c]pyridin-6-yl)benzonitrile]	≤ 10	≤ 10
N#Cc1cccc(-c2nc(N)c3nn(Cc4ccccn4)nc3c2-c2ccncn2)c1 [Example 16, 3-(4-amino-2-(pyridin-2-ylmethyl)-7-(pyrimidin-4-yl)-2H-[1,2,3]triazolo[4,5-c]pyridin-6-yl)benzonitrile]	≤ 10	≤ 10
N#Cc1cccc(-c2nc(N)c3nn(Cc4ncccc4F)nc3c2-c2ccc3nccnc3c2)c1 [Example 37, 3-(4-amino-2-((3-fluoropyridin-2-yl)methyl)-7-(quinoxalin-6-yl)-2H-[1,2,3]triazolo[4,5-c]pyridin-6-yl)benzonitrile]	≤ 10	10 to 100
Cc1cccc(Cn2nc3c(N)nc(-c4cccc(C#N)c4)c(-c4ocnc4C)c3n2)n1 [Example 29, 3-(4-amino-7-(4-methyloxazol-5-yl)-2-((6-methylpyridin-2-yl)methyl)-2H-[1,2,3]triazolo[4,5-c]pyridin-6-yl)benzonitrile]	≤ 10	≤ 10
Cc1cccc(Cn2cc3c(-c4ccncn4)c(-c4cccc(C#N)c4)nc(N)c3n2)n1 [Example 10, 3-(7-amino-2-((6-methylpyridin-2-yl)methyl)-4-(pyrimidin-4-yl)-2H-pyrazolo[3,4-c]pyridin-5-yl)benzonitrile]	≤ 10	≤ 10
Cc1ncoc1-c1c(-c2cccc(C#N)c2)nc(N)c2nn(Cc3ccn(C)n3)nc12 [Example 45, 3-(4-amino-2-((1-methyl-1H-pyrazol-3-yl)methyl)-7-(4-methyloxazol-5-yl)-2H-[1,2,3]triazolo[4,5-c]pyridin-6-yl)benzonitrile]	≤ 10	≤ 10
N#Cc1cccc(-c2nc(N)c3cn(Cc4ccccc4F)nc3c2-c2ccncn2)c1 [Example 7, 3-(4-amino-2-(2-fluorobenzyl)-7-(pyrimidin-4-yl)-2H-pyrazolo[4,3-c]pyridin-6-yl)benzonitrile]	≤ 10	≤ 10
